Measurements published in ChEMBL document CHEMBL3525960, “Role of catechol-O-methyltransferase in the disposition of luteolin in rats” (Drug Metab Dispos, 2011).

Key:
[1] = AUC (0 to t) in Sprague-Dawley rat at 6.5 mg/kg, iv; format: ADME, organism-based; parameters: dose 6.5 mg/kg, route intravenous; conditions: plasma
[2] = AUC (0 to infinity) in Sprague-Dawley rat at 6.5 mg/kg, iv; format: ADME, organism-based; parameters: time infinity, dose 6.5 mg/kg, route intravenous; conditions: plasma
[3] = Mean residence time (0 to t) in Sprague-Dawley rat at 6.5 mg/kg, iv; format: ADME, organism-based; parameters: dose 6.5 mg/kg, route intravenous; conditions: in vivo
[4] = Mean residence time (0 to infinity) in Sprague-Dawley rat at 6.5 mg/kg, iv; format: ADME, organism-based; parameters: dose 6.5 mg/kg, route intravenous; conditions: in vivo
[5] = Half life in Sprague-Dawley rat at 6.5 mg/kg, iv; format: ADME, organism-based; parameters: dose 6.5 mg/kg, route intravenous; conditions: in vivo
[6] = Clearance in Sprague-Dawley rat at 6.5 mg/kg, iv; format: ADME, organism-based; parameters: dose 6.5 mg/kg, route intravenous; conditions: in vivo
[7] = Volume of distribution in Sprague-Dawley rat at 6.5 mg/kg, iv; format: ADME, organism-based; parameters: dose 6.5 mg/kg, route intravenous; conditions: in vivo
[8] = AUC (0 to t) in Sprague-Dawley rat at 6.5 mg/kg, iv co-treated with COMT inhibitor entacapone; format: ADME, organism-based; parameters: dose 6.5 mg/kg, route intravenous; conditions: plasma
[9] = AUC (0 to infinity) in Sprague-Dawley rat at 6.5 mg/kg, iv co-treated with COMT inhibitor entacapone; format: ADME, organism-based; parameters: time infinity, dose 6.5 mg/kg, route intravenous; conditions: plasma
[10] = Mean residence time (0 to t) in Sprague-Dawley rat at 6.5 mg/kg, iv co-treated with COMT inhibitor entacapone; format: ADME, organism-based; parameters: dose 6.5 mg/kg, route intravenous; conditions: in vivo
[11] = Mean residence time (0 to infinity) in Sprague-Dawley rat at 6.5 mg/kg, iv co-treated with COMT inhibitor entacapone; format: ADME, organism-based; parameters: dose 6.5 mg/kg, route intravenous; conditions: in vivo
[12] = Half life in Sprague-Dawley rat at 6.5 mg/kg, iv co-treated with COMT inhibitor entacapone; format: ADME, organism-based; parameters: dose 6.5 mg/kg, route intravenous; conditions: in vivo
[13] = Clearance in Sprague-Dawley rat at 6.5 mg/kg, iv co-treated with COMT inhibitor entacapone; format: ADME, organism-based; parameters: dose 6.5 mg/kg, route intravenous; conditions: in vivo
[14] = Volume of distribution in Sprague-Dawley rat at 6.5 mg/kg, iv co-treated with COMT inhibitor entacapone; format: ADME, organism-based; parameters: dose 6.5 mg/kg, route intravenous; conditions: in vivo
[15] = Drug excretion in Sprague-Dawley rat urine at 6.5 mg/kg, iv after 24 hrs; format: ADME, organism-based; parameters: dose 6.5 mg/kg, route intravenous; conditions: read-out: Drug excretion
[16] = Drug excretion in Sprague-Dawley rat urine at 6.5 mg/kg, iv after 24 hrs co-treated with COMT inhibitor entacapone; format: ADME, organism-based; parameters: dose 6.5 mg/kg, route intravenous; conditions: read-out: Drug excretion
[17] = Drug recovery in Sprague-Dawley rat urine assessed as retention time at 6.5 mg/kg, iv by reverse-phase HPLC method; format: ADME, organism-based; parameters: dose 6.5 mg/kg, route intravenous; conditions: in vivo
Liver [18] = assay: Drug metabolism in Sprague-Dawley rat liver homogenate assessed as 3'-O-methylated luteolin at 20 uM after 20 to 60 mins; format: ADME, tissue-based; conditions: tissue homogenate
Liver [19] = assay: Drug metabolism in Sprague-Dawley rat liver homogenate assessed as 4'-O-methylated luteolin at 20 uM after 20 to 60 mins; format: ADME, tissue-based; conditions: tissue homogenate
Kidney [20] = assay: Drug metabolism in Sprague-Dawley rat kidney homogenate assessed as 3'-O-methylated luteolin at 20 uM after 20 to 60 mins; format: ADME, tissue-based; conditions: tissue homogenate
Kidney [21] = assay: Drug metabolism in Sprague-Dawley rat kidney homogenate assessed as 4'-O-methylated luteolin at 20 uM after 20 to 60 mins; format: ADME, tissue-based; conditions: tissue homogenate
Lung [22] = assay: Drug metabolism in Sprague-Dawley rat lung homogenate assessed as 3'-O-methylated luteolin at 20 uM after 20 to 60 mins; format: ADME, tissue-based; conditions: tissue homogenate
Lung [23] = assay: Drug metabolism in Sprague-Dawley rat lung homogenate assessed as 4'-O-methylated luteolin at 20 uM after 20 to 60 mins; format: ADME, tissue-based; conditions: tissue homogenate
Small intestine [24] = assay: Drug metabolism in Sprague-Dawley rat small intestine homogenate assessed as 3'-O-methylated luteolin at 20 uM after 20 to 60 mins; format: ADME, tissue-based; conditions: tissue homogenate
Small intestine [25] = assay: Drug metabolism in Sprague-Dawley rat small intestine homogenate assessed as 4'-O-methylated luteolin at 20 uM after 20 to 60 mins; format: ADME, tissue-based; conditions: tissue homogenate
[26] = Drug metabolism in Sprague-Dawley rat erythrocytes homogenate assessed as 3'-O-methylated luteolin at 20 uM after 20 to 60 mins; format: ADME, cell-based; conditions: erythrocyte
[27] = Drug metabolism in Sprague-Dawley rat erythrocytes homogenate assessed as 4'-O-methylated luteolin at 20 uM after 20 to 60 mins; format: ADME, cell-based; conditions: erythrocyte
Liver [28] = assay: Drug metabolism in Sprague-Dawley rat liver homogenate assessed as 3'-O-methylated luteolin at 20 uM after 20 to 60 mins in presence of COMT inhibitor entacapone; format: ADME, tissue-based; conditions: tissue homogenate
Liver [29] = assay: Drug metabolism in Sprague-Dawley rat liver homogenate assessed as 4'-O-methylated luteolin at 20 uM after 20 to 60 mins in presence of COMT inhibitor entacapone; format: ADME, tissue-based; conditions: tissue homogenate
Kidney [30] = assay: Drug metabolism in Sprague-Dawley rat kidney homogenate assessed as 3'-O-methylated luteolin at 20 uM after 20 to 60 mins in presence of COMT inhibitor entacapone; format: ADME, tissue-based; conditions: tissue homogenate
Kidney [31] = assay: Drug metabolism in Sprague-Dawley rat kidney homogenate assessed as 4'-O-methylated luteolin at 20 uM after 20 to 60 mins in presence of COMT inhibitor entacapone; format: ADME, tissue-based; conditions: tissue homogenate
Lung [32] = assay: Drug metabolism in Sprague-Dawley rat lung homogenate assessed as 3'-O-methylated luteolin at 20 uM after 20 to 60 mins in presence of COMT inhibitor entacapone; format: ADME, tissue-based; conditions: tissue homogenate
Lung [33] = assay: Drug metabolism in Sprague-Dawley rat lung homogenate assessed as 4'-O-methylated luteolin at 20 uM after 20 to 60 mins in presence of COMT inhibitor entacapone; format: ADME, tissue-based; conditions: tissue homogenate
Small intestine [34] = assay: Drug metabolism in Sprague-Dawley rat small intestine homogenate assessed as 3'-O-methylated luteolin at 20 uM after 20 to 60 mins in presence of COMT inhibitor entacapone; format: ADME, tissue-based; conditions: tissue homogenate
Small intestine [35] = assay: Drug metabolism in Sprague-Dawley rat small intestine homogenate assessed as 4'-O-methylated luteolin at 20 uM after 20 to 60 mins in presence of COMT inhibitor entacapone; format: ADME, tissue-based; conditions: tissue homogenate
[36] = Drug metabolism in Sprague-Dawley rat erythrocytes homogenate assessed as 3'-O-methylated luteolin at 20 uM after 20 to 60 mins in presence of COMT inhibitor entacapone; format: ADME, cell-based; conditions: erythrocyte
[37] = Drug metabolism in Sprague-Dawley rat erythrocytes homogenate assessed as 4'-O-methylated luteolin at 20 uM after 20 to 60 mins in presence of COMT inhibitor entacapone; format: ADME, cell-based; conditions: erythrocyte
[38] = Apparent permeability in human Caco2 cells; format: ADME, cell-based; conditions: caco-2
[39] = Drug absorption in human Caco2 cells; format: ADME, cell-based; conditions: caco-2

Q: What does the source list for `O=c1cc(-c2ccc(O)c(O)c2)oc2cc(O)cc(O)c12` [LUTEOLIN]?
A: AUC(0-t) [1]: 7600 ng·h/mL; AUC(0-inf) [2]: 8180 ng·h/mL; MRT last [3]: 1.41 h; MRT inf [4]: 2.32 h; half-life [5]: 3.2 h; clearance [6]: 13.4 mL/min/kg; Vd [7]: 3.74 L/kg; AUC(0-t) [8]: 11400 ng·h/mL; AUC(0-inf) [9]: 12500 ng·h/mL; MRT last [10]: 1.65 h; MRT inf [11]: 2.68 h; half-life [12]: 3.31 h; clearance [13]: 8.95 mL/min/kg; Vd [14]: 2.57 L/kg; dose excreted at 24 h [15]: 5.12%; dose excreted at 24 h [16]: 7.32%; Retention_time [17]: 15.46 min; Drug metabolism (Liver [18]): metabolite_detected; Drug metabolism (Liver [19]): metabolite_detected; Drug metabolism (Kidney [20]): metabolite_detected; Drug metabolism (Kidney [21]): metabolite_detected; Drug metabolism (Lung [22]): metabolite_detected; Drug metabolism (Lung [23]): metabolite_detected; Drug metabolism (Small intestine [24]): metabolite_detected; Drug metabolism (Small intestine [25]): metabolite_detected; Drug metabolism [26]: metabolite_detected; Drug metabolism [27]: metabolite_detected; Drug metabolism (Liver [28]): metabolite_not_detected; Drug metabolism (Liver [29]): metabolite_not_detected; Drug metabolism (Kidney [30]): metabolite_not_detected; Drug metabolism (Kidney [31]): metabolite_not_detected; Drug metabolism (Lung [32]): metabolite_not_detected; Drug metabolism (Lung [33]): metabolite_not_detected; Drug metabolism (Small intestine [34]): metabolite_not_detected; Drug metabolism (Small intestine [35]): metabolite_not_detected; Drug metabolism [36]: metabolite_not_detected; Drug metabolism [37]: metabolite_not_detected; Papp [38]: 5.8 ×10⁻⁶ cm/s; Drug absorption [39]: 20%
